Assay results as given in patent publication US20080139581A1 (priority 2005, published 2008).

## CCCCCCCCc1c(CC)nc2nc(Cl)nn2c1N
  melting point: 202 to 203 °C
